Source: US12358915B2, “METTL3 inhibitory compounds” (STORM THERAPEUTICS LTD., priority 2019, dated 2025)
Read-outs that look alike come from different tables or passages of the source.

Key:
[1] = target: T1, METTL3/14 (Homo sapiens, UniProt Q86U44); test: METTL3/14 methyltransferase assay (METTL3_14 RFMS, RapidFire mass spectrometry); assay type: biochemical; conditions: read-out: METTL3_14 RFMS IC50;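 further: recombinant His-tagged METTL3 with FLAG-tagged METTL14 from baculovirus, SAH product quantified by mass spectrometry against isotope-labelled internal standards, 60 min at room temperature, scaled between no-RNA and DMSO-only wells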
T1 construct: The enzyme used was full-length his-tagged METTL3; His; made in house

[2] = system: MOLM-13 cells; test: MOLM13 CTG - analysis of cell proliferation (Cell Titre Glo); assay type: cell-based; conditions: Homo sapiens, geometric mean, read-out: CTG MOLM13 cells IC50 GEOMEAN
Protocol: MOLM-13 or MOLM-14 cells were plated, in suspension, in 24 well tissue culture plates at final concentration of 200,000/ml, with or without 50 ng/ml IFNγ. […] Cells were incubated for 4 days at 37° C. at which point 600 μl of cell suspension was removed for Mass spectrometry analysis of m6A. 600 μl of fresh media containing the appropriate concentration of METTL3 inhibitor/IFNγ was added to remaining cell suspensions. Cells where then cultured for a further 7 days, cell suspension was sampled for analysis of proliferation and Cell surface markers periodically.
At regular time points (4, 5, 6 &7) days cells were mixed to maintain a homogenous cell suspension. 25 μl of this cell suspension was removed and added to a white 384 well plate, 25 μl of Cell Titre Glo reagent (Promega) was added, and incubated for 10 mins at room temperature before measurement of luminescence intensity, as per the manufacturers instructions.

[3] = 5 nM METTL3/14, 0.2 μM RNA substrate, 0.5 μM SAM, lower limit of the assay IC50=5 nM, Compounds 266-351
[4] = 5 nM METTL3/14, 0.2 μM RNA substrate, 0.5 μM SAM, lower limit of the assay IC50=5 nM, Compounds 63-265

T1 sequence (Q86U44 whole entry): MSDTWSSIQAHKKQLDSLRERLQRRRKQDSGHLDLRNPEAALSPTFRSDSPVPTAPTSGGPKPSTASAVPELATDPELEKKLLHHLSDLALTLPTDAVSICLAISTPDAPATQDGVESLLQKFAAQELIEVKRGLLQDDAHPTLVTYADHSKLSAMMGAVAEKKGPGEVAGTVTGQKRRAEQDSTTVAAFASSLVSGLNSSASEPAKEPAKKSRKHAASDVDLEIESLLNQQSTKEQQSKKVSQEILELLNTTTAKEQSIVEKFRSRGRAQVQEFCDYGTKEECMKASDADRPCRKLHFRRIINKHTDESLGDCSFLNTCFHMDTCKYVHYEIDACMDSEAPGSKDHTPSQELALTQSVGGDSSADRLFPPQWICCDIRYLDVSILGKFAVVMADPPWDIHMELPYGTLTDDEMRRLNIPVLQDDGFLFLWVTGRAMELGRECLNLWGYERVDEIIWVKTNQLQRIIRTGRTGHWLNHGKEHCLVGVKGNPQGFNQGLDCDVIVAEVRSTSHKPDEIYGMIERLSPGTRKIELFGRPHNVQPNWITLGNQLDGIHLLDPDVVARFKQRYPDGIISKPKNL
T1 sequence (Q9HCE5 whole entry partner): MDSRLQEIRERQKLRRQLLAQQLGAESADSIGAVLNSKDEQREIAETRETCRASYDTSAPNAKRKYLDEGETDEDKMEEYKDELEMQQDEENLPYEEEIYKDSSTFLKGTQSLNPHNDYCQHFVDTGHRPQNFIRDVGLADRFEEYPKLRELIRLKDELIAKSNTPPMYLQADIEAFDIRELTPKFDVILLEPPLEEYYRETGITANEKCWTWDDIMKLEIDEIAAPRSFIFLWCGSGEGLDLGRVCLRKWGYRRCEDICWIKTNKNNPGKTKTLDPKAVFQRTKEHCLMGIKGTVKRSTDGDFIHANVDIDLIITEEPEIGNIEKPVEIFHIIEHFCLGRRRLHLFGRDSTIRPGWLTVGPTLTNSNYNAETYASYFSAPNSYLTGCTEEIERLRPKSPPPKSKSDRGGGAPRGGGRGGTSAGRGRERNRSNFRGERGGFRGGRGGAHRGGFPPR

Row | IC50 [1, 3] [nM] | IC50 [2] [nM] | IC50 [1, 4] [nM] | IC50 [1] [nM] | SMILES
1 | 6.16 | 2760 | – | – | Fc1cc(-c2cn(Cc3cn4cc(CNCC5CCCCC5)ccc4n3)nn2)c2cn[nH]c2c1 [Example 320, N-(cyclohexylmethyl)-1-[2-[[4-(6-fluoro-1H-indazol-4-yl)triazol-1-yl]methyl]imidazo[1,2-a]pyridin-6-yl]methanamine]
2 | – | 9610 | 25.8 | – | CC(NCC1CCCCC1)c1ccc2nc(Cn3cc(-c4cccc5[nH]ncc45)nn3)cn2c1 (stereo not drawn) [Example 255]
3 | – | 11800 | 28.7 | – | O=C(NCc1cn2cc(CCNC3CCCCC3)ccc2n1)c1cc(=O)n2ccccc2n1 [Compound 236, N-({6-[2-(cyclohexylamino)ethyl]imidazo[1,2-a]pyridin-2-yl}methyl)-4-oxo-4H-pyrido[1,2-a]pyrimidine-2-carboxamide]
4 | 6.95 | ≥ 30000 | – | – | Oc1cc(-c2cn(Cc3cn4cc(CNCC5(O)CCC5)ccc4n3)nn2)c2cn[nH]c2c1 [Example 267, 4-[1-[[6-[[(1-hydroxycyclobutyl)methylamino]methyl]imidazo[1,2-a]pyridin-2-yl]methyl]triazol-4-yl]-1H-indazol-6-ol]
5 | – | 13100 | 1860 | – | O=C(NCc1cn2cc(CNC3(c4ccccc4)COC3)ccc2n1)c1cc(=O)n2ccccc2n1 [Compound 89, 4-oxo-N-[(6-{[(3-phenyloxetan-3-yl)amino]methyl}imidazo[1,2-a]pyridin-2-yl)methyl]-4H-pyrido[1,2-a]pyrimidine-2-carboxamide]
6 | 8.86 | 3280 | – | – | c1cc2[nH]ncc2c(-c2cn(Cc3cn4cc(CNCC5CCC5)ccc4n3)nn2)n1 [Example 324, N-(cyclobutylmethyl)-1-[2-[[4-(1H-pyrazolo[4,3-c]pyridin-4-yl)triazol-1-yl]methyl]imidazo[1,2-a]pyridin-6-yl]methanamine]
7 | – | ≥ 30000 | 79.8 | – | O=C(NCc1cn2cc(CNC3CCC3)ccc2n1)c1cc(=O)n2ccccc2n1 [Compound 126, N-({6-[(cyclobutylamino)methyl]imidazo [1,2-a]pyridin-2-yl}methyl)-4-oxo-4H-pyrido [1,2-a]pyrimidine-2-carboxamide]
8 | – | 13800 | 2730 | – | O=C(NCc1cn2cc(C3COCCN3)ccc2n1)c1cc(=O)n2ccccc2n1 (stereo not drawn) [Example 263, N-{[6-(morpholin-3-yl)imidazo[1,2-a]pyridin-2-yl]methyl}-4-oxo-4H-pyrido[1,2-a]pyrimidine-2-carboxamide]
9 | 10.6 | 5330 | – | – | COc1ccc2[nH]ncc2c1-c1cn(Cc2cn3cc(CNCC4(O)CCC4)ccc3n2)nn1 [Example 268, 1-[[[2-[[4-(5-methoxy-1H-indazol-4-yl)triazol-1-yl]methyl]imidazo[1,2-a]pyridin-6-yl]methylamino]methyl]cyclobutanol]
10 | – | 3510 | 14.9 | – | O=C(NCc1cn2cc(CN3CCC4(CC3)CC4)ccc2n1)c1cc(=O)n2ccccc2n1 [Compound 216, N-{[6-({6-azaspiro[2.5]octan-6-yl}methyl)imidazo [1,2-a]pyridin-2-yl]methyl}-4-oxo-4H-pyrido [1,2-a]pyrimidine-2-carboxamide]
11 | – | 362 | – | ≤ 4.44 | Brc1cc(-c2cn(Cc3cn4cc(CNCC5CCC5)ccc4n3)nn2)c2cn[nH]c2c1 [Example 296, 1-[2-[[4-(6-bromo-1H-indazol-4-yl)triazol-1-yl]methyl]imidazo[1,2-a]pyridin-6-yl]-N-(cyclobutylmethyl)methanamine]
12 | 511 | ≥ 30000 | – | – | O=C(c1cc(-c2cn(Cc3cn4cc(CNCC5CCC5)ccc4n3)nn2)c2cn[nH]c2c1)N1CCOCC1 [Example 300, [4-[1-[[6-[(cyclobutylmethylamino)methyl]imidazo[1,2-a]pyridin-2-yl]methyl]triazol-4-yl]-1H-indazol-6-yl]-morpholino-methanone]
13 | 8.84 | 3250 | – | – | OC1(CNCc2ccc3nc(Cn4cc(-c5cccc6[nH]ncc56)nn4)cn3c2)CCCCC1 [Example 328, 1-[[[2-[[4-(1H-indazol-4-yl)triazol-1-yl]methyl]imidazo[1,2-a]pyridin-6-yl]methylamino]methyl]cyclohexanol]
14 | – | 11400 | 19.3 | – | O=C(NCc1cn2cc(CNCC3CCC(F)(F)C3)ccc2n1)c1cc(=O)n2ccccc2n1 (stereo not drawn) [Compound 211, N-{[6-({[(3,3-difluorocyclopentyl)methyl]amino}methyl)imidazo [1,2-a]pyridin-2-yl]methyl}-4-oxo-4H-pyrido[1,2-a]pyrimidine-2-carboxamide]
15 | 76.6 | 10700 | – | – | OC1(CNCc2ccc3nc(Cn4cc(-c5nccc6[nH]ncc56)nn4)cn3c2)CCC1 [Example 326, 1-[[[2-[[4-(1H-pyrazolo[4,3-c]pyridin-4-yl)triazol-1-yl]methyl]imidazo[1,2-a]pyridin-6-yl]methylamino]methyl]cyclobutanol]
16 | 18 | 6980 | – | – | CC1CC(CNCc2ccc3nc(CNC(=O)c4cc(=O)n5ccccc5n4)cn3c2)C1 (stereo not drawn) [Compound 290, N-[[6-[[(3-methylcyclobutyl)methylamino]methyl]imidazo[1,2-a]pyridin-2-yl]methyl]-4-oxo-pyrido[1,2-a]pyrimidine-2-carboxamide]
17 | – | 6800 | 13.7 | – | O=C(NCc1cn2cc(CNCCC3CC3)ccc2n1)c1cc(=O)n2ccccc2n1 [Compound 103, N-[(6-{[(2-cyclopropylethyl)amino]methyl}imidazo[1,2-a]pyridin-2-yl)methyl]-4-oxo-4H-pyrido[1,2-a]pyrimidine-2-carboxamide]
18 | 14.5 | 7500 | – | – | c1cc2[nH]ncc2c(-c2cn(Cc3cn4cc(CNCC5CCCCC5)ccc4n3)nn2)n1 [Example 325, N-(cyclohexylmethyl)-1-[2-[[4-(1H-pyrazolo[4,3-c]pyridin-4-yl)triazol-1-yl]methyl]imidazo[1,2-a]pyridin-6-yl]methanamine]
19 | 13.9 | 7320 | – | – | O=C(NCc1cn2cc(CNCC3(O)CCC3)ccc2n1)c1cc(=O)n2ccccc2n1 [Compound 288, N-[[6-[[(1-hydroxycyclobutyl)methylamino]methyl]imidazo[1,2-a]pyridin-2-yl]methyl]-4-oxo-pyrido[1,2-a]pyrimidine-2-carboxamide]
20 | 737 | ≥ 30000 | – | – | O=C(O)c1cc(-c2cn(Cc3cn4cc(CNCC5CCC5)ccc4n3)nn2)c2cn[nH]c2c1 [Example 297, 4-[1-[[6-[(cyclobutylmethylamino)methyl]imidazo[1,2-a]pyridin-2-yl]methyl]triazol-4-yl]-1H-indazole-6-carboxylic acid]
21 | 42.1 | ≥ 30000 | – | – | NC(=O)c1cc(-c2cn(Cc3cn4cc(CNCC5CCC5)ccc4n3)nn2)c2cn[nH]c2c1 [Example 298, 4-[1-[[6-[(cyclobutylmethylamino)methyl]imidazo[1,2-a]pyridin-2-yl]methyl]triazol-4-yl]-1H-indazole-6-carboxamide]
22 | 19.3 | 12300 | – | – | O=C(NCc1cn2cc(CNCCC3CCC3)ccc2n1)c1cc(=O)n2ccccc2n1 [Compound 286, N-[[6-[(2-cyclobutylethylamino)methyl]imidazo[1,2-a]pyridin-2-yl]methyl]-4-oxo-pyrido[1,2-a]pyrimidine-2-carboxamide]
23 | – | 11100 | – | ≤ 4.23 | Oc1cc(-c2cn(Cc3cn4cc(CNCC5CCC5)ccc4n3)nn2)c2cn[nH]c2c1 [Example 266, 4-[1-[[6-[(cyclobutylmethylamino)methyl]imidazo[1,2-a]pyridin-2-yl]methyl]triazol-4-yl]-1H-indazol-6-ol]
24 | – | 9890 | 209 | – | O=C(NCc1cn2cc(CNCc3ccccc3)ccc2n1)c1cccc2[nH]ncc12 [Compound 178, N-({6-[(benzylamino)methyl]imidazo [1,2-a]pyridin-2-yl}methyl)-1H-indazole-4-carboxamide]
25 | – | 1930 | 12.7 | – | c1cc(-c2cn(Cc3cn4cc(CNCC5CCCCC5)ccc4n3)nn2)c2cn[nH]c2c1 [Compound 248, (cyclohexylmethyl)[(2-{[4-(1H-indazol-4-yl)-1H-1,2,3-triazol-1-yl]methyl}imidazo[1,2-a]pyridin-6-yl)methyl]amine]
26 | – | 7340 | 15.8 | – | O=C(NCc1cn2cc(CNCC3CCC3F)ccc2n1)c1cc(=O)n2ccccc2n1 (stereo not drawn) [Compound 214, N-{[6-({[(2-fluorocyclobutyl)methyl]amino}methyl)imidazo [1,2-a]pyridin-2-yl]methyl}-4-oxo-4H-pyrido [1,2-a]pyrimidine-2-carboxamide]
27 | 32.5 | 11000 | – | – | O=C(NCc1cn2cc(CNCC3CCC3)ccc2n1)c1cccc2[nH]ncc12 [Example 322, N-[[6-[(cyclobutylmethylamino)methyl]imidazo[1,2-a]pyridin-2-yl]methyl]-1H-indazole-4-carboxamide]
28 | – | 12700 | 755 | – | O=C(NCc1cn2cc(CN[C@@H]3C[C@H]3C(F)(F)F)ccc2n1)c1cc(=O)n2ccccc2n1 [Compound 112, 4-oxo-N-{[6-({[(1R,2R)-2-(trifluoromethyl)cyclopropyl]amino}methyl)imidazo[1,2-a]pyridin-2-yl]methyl}-4H-pyrido[1,2-a] pyrimidine-2-carboxamide]
29 | – | 2460 | 12.4 | – | CC1(C)CCN(Cc2ccc3nc(CNC(=O)c4cc(=O)n5ccccc5n4)cn3c2)CC1 [Compound 193, N-({6-[(4,4-dimethylpiperidin-1-yl)methyl]imidazo[1,2-a]pyridin-2-yl}methyl)-4-oxo-4H-pyrido[1,2-a]pyrimidine-2-carboxamide]
30 | – | 4710 | 26.4 | – | O=C(NCc1cn2cc(CNCCC3CC3)ccc2n1)c1cc(=O)c2ccccc2o1 [Compound 218]
